From US20260199323A1, “LIGAND COMPOUNDS FOR E3 UBIQUITIN LIGASE, PROTEIN DEGRADERS DEVELOPED ON BASIS OF LIGAND COMPOUNDS, AND USES THEREOF” (GLUETACS THERAPEUTICS (SHANGHAI) CO., LTD., priority 2021, published 2026)

Assays:
NCI-H1975 = test: CCK-8 tumor cell proliferation, NCI-H1975; format: cell-based, Human; conditions: Homo sapiens; Table 15, ALK inhibitor based; NCI-H1975; read-out: IC50 inhibiting proliferation of tumor cells, NCI-H1975
Description: (§1) The tumor cells used herein were cultured in a cell culture medium listed in table 4 at 37° C. in an incubator with 5% CO2. Prior to experimentation, all cells used were correctly identified by STR profiling, and tested negative for mycoplasma through routine screenings.
(§2) IC50 values of the compounds of the present disclosure (including the compounds in Tables 1 and 3, and compounds of examples) were measured using the Meilun Cell Counting Kit-8 kit from Dalian Meilun Biotech Co., Ltd. Assay details are as follows: tumor cells were seeded in a 96-well plate at a density listed in Table 5. After 24 h, 100 μL of the inoculated cells were treated with 0.5 μL of the compounds of the present disclosure (including the compounds in Tables 1 and 3, and compounds of examples) at 10 different successively decreasing concentrations (starting at the highest concentration of 10 μM; 5-fold serial dilutions). After the cells were treated with the compounds of the present disclosure for a period of time, the cell viability detection reagent was added to the culture medium for cell viability assessment according to the instructions provided with the CCK-8 kit. […] The growth inhibition of the compounds of the present disclosure on cells was plotted by Prism Graphpad software, and the IC50 values of the compounds of the present disclosure were calculated therefrom.

NCI-H2228 = test: CCK-8 tumor cell proliferation, NCI-H2228; conditions: Homo sapiens, Table 15, ALK inhibitor based, read-out: IC50 inhibiting proliferation of tumor cells, NCI-H2228
Description: as §1, §2

HCC827 = test: CCK-8 tumor cell proliferation, HCC827; format: cell-based, Human; conditions: for IC50: Homo sapiens, Table 15, ALK inhibitor based, HCC827, read-out: IC50 inhibiting proliferation of tumor cells, HCC827
SR = test: CCK-8 tumor cell proliferation, SR; format: cell-based, Human; conditions: Homo sapiens; Table 15, ALK inhibitor based; SR; read-out: IC50 inhibiting proliferation of tumor cells, SR
Outline: (§3)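 IC50 derived from CCK-8 cell viability after compound treatment. Dilution series: 10 concentrations, 5-fold apart, from 10 μM. Compound added 24 h post-seeding; culture at 37 °C in 5% CO2.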

PC-9 = test: CCK-8 tumor cell proliferation, PC-9; format: cell-based, Human; conditions: Homo sapiens; Table 15, ALK inhibitor based; PC-9; read-out: IC50 inhibiting proliferation of tumor cells, PC-9
Mino = test: CCK-8 tumor cell proliferation, Mino; format: cell-based, Human; conditions: Homo sapiens; Table 15, ALK inhibitor based; Mino; read-out: IC50 inhibiting proliferation of tumor cells, Mino
Outline: as §3

MDA-MB-231 = test: CCK-8 tumor cell proliferation, MDA-MB-231; format: cell-based, Human; design: IC50 for inhibiting the proliferation of tumor cells, MDA-MB-231: scale not given here; conditions: for IC50: Homo sapiens, Table 15, ALK inhibitor based, MDA-MB-231, read-out: IC50 inhibiting proliferation of tumor cells, MDA-MB-231
Outline: as §3

MM.1S = test: CCK-8 tumor cell proliferation, MM.1S; format: cell-based; conditions: Table 8, designed based on ER inhibitors; 72 h
Outline: as §3

SU-DHL-6 = test: CCK-8 tumor cell proliferation, SU-DHL-6; format: cell-based, Human; conditions: Table 8, designed based on ER inhibitors; 72 h
Description: as §1, §2

Kasumi-1 = test: CCK-8 tumor cell proliferation, Kasumi-1; format: cell-based, Human; conditions: Table 8, designed based on ER inhibitors; 72 h
Outline: as §3

T47D = test: CCK-8 tumor cell proliferation, T47D; format: cell-based, Human; conditions: Table 8, designed based on ER inhibitors; 96 h
Description: as §1, §2

SW620 = test: CCK-8 tumor cell proliferation, SW620; format: cell-based, Human; conditions: Table 8, designed based on ER inhibitors; 96 h
Outline: as §3

CCRF-CEM = test: CCK-8 tumor cell proliferation, CCRF-CEM; format: cell-based, Human; design: IC50 for inhibiting the proliferation of tumor cells, CCRF-CEM: scale not given here; conditions: Table 8, designed based on ER inhibitors; 96 h
Outline: as §3

Hep3B2.7-1 = test: CCK-8 tumor cell proliferation, Hep3B2.7-1; format: cell-based, Human; conditions: Table 8, designed based on ER inhibitors; 96 h
Outline: as §3

Jurkat = test: CCK-8 tumor cell proliferation, Jurkat; format: cell-based, Human; conditions: Homo sapiens, Table 23, compared to Comparative Example compounds, read-out: Inhibitory activity (IC50, nM) against tumor cell proliferation, Jurkat
Outline: as §3

MM.1R = test: CCK-8 tumor cell proliferation, MM.1R; format: cell-based; conditions: Table 23, compared to Comparative Example compounds, read-out: Inhibitory activity (IC50, nM) against tumor cell proliferation, MM.1R
Outline: as §3

CAL-62 = test: CCK-8 tumor cell proliferation, CAL-62; format: cell-based, Human; conditions: Homo sapiens; Table 23, compared to Comparative Example compounds; CAL-62; read-out: Inhibitory activity (IC50, nM) against tumor cell proliferation, CAL-62
Outline: as §3

[1] = Table 8, designed based on ER inhibitors, 96 h

COc1cc(N2CCC(N3CCN(Cc4ccc5c(c4)CN(C4CCC(=O)NC4=O)C5=O)CC3)CC2)ccc1Nc1ncc(Cl)c(Nc2ccccc2P(C)(C)=O)n1 (stereo not shown) [GT-02811, 3-(5-((4-(1-(4-((5-chloro-4-((2-(dimethylphosphoryl)phenyl)amino)pyrimidin-2-yl)amino)-3-methoxyphenyl)piperidin-4-yl)piperazin-1-yl)methyl)-1-oxoisoindolin-2-yl)piperidine-2,6-dione]
IC50 (NCI-H1975): 100 to 500 nM
IC50 (NCI-H2228): 1000 to 5000 nM

CCc1cc2c(cc1N1CCC(N3CCN(Cc4ccc5c(c4)CN(C4CCC(=O)NC4=O)C5=O)CC3)CC1)C(C)(C)c1[nH]c3cc(C#N)ccc3c1C2=O (stereo not shown) [GT-02972, 8-(4-(4-((2-(2,6-dioxopiperidin-3-yl)-1-oxoisoindolin-5-yl)methyl)piperazin-1-yl)piperidin-1-yl)-9-ethyl-6,6-dimethyl-11-oxo-6,11-dihydro-5H-benzo[b]carbazole-3-carbonitrile]
IC50 (NCI-H1975): 500 to 1000 nM
IC50 (HCC827): 1000 to 5000 nM
IC50 (SR): < 50 nM
IC50 (PC-9): 500 to 1000 nM
IC50 (NCI-H2228): 500 to 1000 nM
IC50 (Mino): 500 to 1000 nM
IC50 (MDA-MB-231): 500 to 1000 nM

Cc1cc(Nc2ncc(Cl)c(Nc3ccccc3S(=O)(=O)C(C)C)n2)c(OC(C)C)cc1C1CCN(Cc2ccc3c(c2)CN(C2CCC(=O)NC2=O)C3=O)CC1 (stereo not shown) [GT-02973, 3-(5-((4-(4-((5-chloro-4-((2-(isopropylsulfonyl)phenyl)amino)pyrimidin-2-yl)amino)-5-isopropoxy-2-methylphenyl)piperidin-1-yl)methyl)-1-oxoisoindolin-2-yl)piperidine-2,6-dione]
IC50 (SR): < 50 nM
IC50 (PC-9): 500 to 1000 nM
IC50 (NCI-H2228): 100 to 500 nM
IC50 (MDA-MB-231): 500 to 1000 nM

COc1cc(N2CCC(NCc3ccc4c(c3)CN(C3CCC(=O)NC3=O)C4=O)CC2)ccc1Nc1ncc(Cl)c(Nc2ccccc2P(C)(C)=O)n1 (stereo not shown) [GT-03015, 3-(5-(((1-(4-((5-chloro-4-((2-(dimethylphosphoryl)phenyl)amino)pyrimidin-2-yl)amino)-3-methoxyphenyl)piperidin-4-yl)amino)methyl)-1-oxoisoindolin-2-yl)piperidine-2,6-dione]
IC50 (NCI-H1975): 50 to 100 nM
IC50 (NCI-H2228): 100 to 500 nM

CCC(=C(c1ccc(O)cc1)c1ccc(OCCNCc2ccc3c(c2)CN(C2CCC(=O)NC2=O)C3=O)cc1)c1ccc(O)cc1 (stereo not shown) [GT-03214, 3-(5-(((2-(4-(1,2-bis(4-hydroxyphenyl)but-1-en-1-yl)phenoxy)ethyl)amino)methyl)-1-oxoisoindolin-2-yl)piperidine-2,6-dione]
IC50 for inhibiting the proliferation of tumor cells, MM.1S (MM.1S): A+
IC50 for inhibiting the proliferation of tumor cells, HCC827 (HCC827; [1]): A+
IC50 for inhibiting the proliferation of tumor cells, SU-DHL-6 (SU-DHL-6): A+
IC50 for inhibiting the proliferation of tumor cells, Kasumi-1 (Kasumi-1): A+
IC50 for inhibiting the proliferation of tumor cells, T47D (T47D): A+
IC50 for inhibiting the proliferation of tumor cells, SW620 (SW620): A+
IC50 for inhibiting the proliferation of tumor cells, CCRF-CEM (CCRF-CEM): A+
IC50 for inhibiting the proliferation of tumor cells, Hep3B2.7-1 (Hep3B2.7-1): A+
IC50 for inhibiting the proliferation of tumor cells, MDA-MB-231 (MDA-MB-231; [1]): A+

COc1cc(N2CCC(N(C)Cc3ccc4c(c3)CN(C3CCC(=O)NC3=O)C4=O)CC2)ccc1Nc1ncc(Cl)c(Nc2ccccc2P(C)(C)=O)n1 (stereo not shown) [GT-03319, 3-(5-(((1-(4-((5-chloro-4-((2-(dimethylphosphoryl)phenyl)amino)pyrimidin-2-yl)amino)-3-methoxyphenyl)piperidin-4-yl)(methyl)amino)methyl)-1-oxoisoindolin-2-yl)piperidine-2,6-dione]
IC50 (NCI-H1975): < 50 nM
IC50 (HCC827): 50 to 100 nM
IC50 (SR): < 50 nM
IC50 (PC-9): 50 to 100 nM
IC50 (NCI-H2228): 50 to 100 nM
IC50 (Jurkat): 1000 to 5000 nM
IC50 (Mino): 1000 to 5000 nM
IC50 (MM.1R): 100 to 500 nM
IC50 (CAL-62): < 50 nM
IC50 (MDA-MB-231): 50 to 100 nM
